Laboratory results reported in the supplement of paper PMC13380429.

Key:
Conditions in all cases: 72 h
Caco-2 [1] = experiment: relative viability EC50 (midpoint between 100% and the lowest measured viability); higher = less toxic
Vero E6 [2] = experiment: as above
Calu-3 [3] = experiment: as above
U2OS [4] = experiment: as above
HepG2 [5] = experiment: as above
Caco-2 [6] = experiment: drug sensitivity score (DSS) for viability; higher = more toxic; extreme values may be limits of the assay
Vero E6 [7] = experiment: as above
Calu-3 [8] = experiment: as above
U2OS [9] = experiment: as above
HepG2 [10] = experiment: as above
Caco-2 [11] = experiment: cell viability relative to DMSO; higher = less toxic
Vero E6 [12] = experiment: as above
Calu-3 [13] = experiment: as above
U2OS [14] = experiment: as above
HepG2 [15] = experiment: as above

SMILES	relative viability EC50 (Caco-2 [1]) [µM]	relative viability EC50 (Vero E6 [2]) [µM]	relative viability EC50 (Calu-3 [3]) [µM]	relative viability EC50 (U2OS [4]) [µM]	relative viability EC50 (HepG2 [5]) [µM]	drug sensitivity score (Caco-2 [6])	drug sensitivity score (Vero E6 [7])	drug sensitivity score (Calu-3 [8])	drug sensitivity score (U2OS [9])	drug sensitivity score (HepG2 [10])	cell viability (Caco-2 [11]; 1 nM) [%]	cell viability (Caco-2 [11]; 10 nM) [%]	cell viability (Caco-2 [11]; 100 nM) [%]	cell viability (Caco-2 [11]; 1000 nM) [%]	cell viability (Caco-2 [11]; 10000 nM) [%]	cell viability (Vero E6 [12]; 1 nM) [%]	cell viability (Vero E6 [12]; 10 nM) [%]	cell viability (Vero E6 [12]; 100 nM) [%]	cell viability (Vero E6 [12]; 1000 nM) [%]	cell viability (Vero E6 [12]; 10000 nM) [%]	cell viability (Calu-3 [13]; 1 nM) [%]	cell viability (Calu-3 [13]; 10 nM) [%]	cell viability (Calu-3 [13]; 100 nM) [%]	cell viability (Calu-3 [13]; 1000 nM) [%]	cell viability (Calu-3 [13]; 10000 nM) [%]	cell viability (U2OS [14]; 1 nM) [%]	cell viability (U2OS [14]; 10 nM) [%]	cell viability (U2OS [14]; 100 nM) [%]	cell viability (U2OS [14]; 1000 nM) [%]	cell viability (U2OS [14]; 10000 nM) [%]	cell viability (HepG2 [15]; 1 nM) [%]	cell viability (HepG2 [15]; 10 nM) [%]	cell viability (HepG2 [15]; 100 nM) [%]	cell viability (HepG2 [15]; 1000 nM) [%]	cell viability (HepG2 [15]; 10000 nM) [%]
CCCN1CCO[C@@H]2c3cc(O)ccc3OC[C@H]21	> 10	> 10	> 10	> 10	> 10	0	0	0	0	0	101	116	97.8	109	102	99.7	101	102	101	95.7	102	110	95	105	90.6	102	106	97.1	102	99.7	106	104	100	92	105
Nc1ncnc2c1ncn2[C@@H]1O[C@H](C[C@@H](N)CC[C@H](N)C(=O)O)[C@@H](O)[C@H]1O [sinefungin]	> 10	> 10	> 10	> 10	> 10	0	0	0	0	0	86.7	95.5	91.4	108	106	112	94.3	102	104	99.5	104	104	100	94.8	93.5	96.6	98.1	97.7	101	96.2	115	96.2	113	89.9	97.1
Cc1cc(NC(=O)Nc2ccc(F)c(F)c2)n(-c2ccccc2)n1 [ML297]	> 10	> 10	> 10	> 10	> 10	0	0	0	0	0	96.9	97	95.9	108	99.2	104	99.5	98.2	102	99.5	103	98.5	105	97.4	98.7	97.1	101	101	103	98.2	105	90.5	108	91.6	98.1
CC(C)(C)CC(C)(C)c1cc(Cc2cc(C(C)(C)CC(C)(C)C)cc(-n3nc4ccccc4n3)c2O)c(O)c(-n2nc3ccccc3n2)c1 [bisoctrizole]	> 10	> 10	> 10	> 10	> 10	0.1	0	0	0	0	98.6	99.3	97.1	98.9	87.7	103	101	96.5	98.1	101	88.8	99	90.8	105	103	96.8	99.7	95.5	99.5	94.4	98.6	108	97.5	98.6	105
CCn1c(=O)n(C2=C(CO)CN(CC3CCCCCCC3)CC2)c2ccccc21 [trap-101]	> 10	> 10	> 10	> 10	> 10	0.3	0	0	0	0	102	89.9	96.7	93.6	83.5	98	96.8	95.6	96.3	98.9	99.6	106	94.5	104	92.6	98.2	101	97.4	98.8	93.8	97.8	96.7	91.5	96.5	98
CCOC(=O)Nc1ccc2c(c1)N(C(=O)CN(C)C)c1ccccc1CC2 [tiracizine]	> 10	> 10	> 10	> 10	> 10	0	0	0	0	0	106	105	105	98.9	100	99.8	99.2	97.3	97.9	97.8	107	103	87	85	106	99.9	104	96.5	101	99.7	106	95.4	111	87.6	102
CC(C(=O)O)c1ccc(C(=O)c2cccs2)cc1 (stereo not given) [suprofen]	> 10	> 10	> 10	> 10	> 10	0	0	1.6	0	1.1	105	98	101	98	90.8	97.7	97.9	95.4	102	98.7	97.9	103	89	86.6	89.8	101	93.5	97.4	97	103	102	93.2	92.9	86.8	85.3
Nc1nc(=O)c2sc(=O)n([C@@H]3O[C@H](CO)[C@@H](O)[C@H]3O)c2[nH]1	> 10	> 10	> 10	> 10	> 10	0	0	0	0	0	95.1	90.6	92.7	99.6	103	94.9	98.7	97	95.8	102	94.2	110	97	95.3	97.5	97.2	93.6	95.4	102	102	91.6	99.5	107	107	97.2
C=CCN1CCCC1CNC(=O)c1cc2nn[nH]c2cc1OC (stereo not given) [alizapride]	> 10	> 10	> 10	> 10	> 10	0	0	0	0	0	94.7	104	90.1	98	107	92.9	97.3	94.9	91.4	105	89.9	91.4	86.2	101	112	97.6	99.9	94.5	106	100	108	94.2	104	88.8	103
CC1CCc2c(N3CCC(O)CC3)c(F)cc3c(=O)c(C(=O)O)cn1c23 (stereo not given) [nadifloxacin]	> 10	> 10	> 10	> 10	> 10	0	0	0	0	0	104	92.1	94.7	114	96.2	94.5	100	97.9	95.7	106	97.6	96.4	102	105	107	98.9	97.5	98.6	96.1	106	97	111	108	103	107
Cc1c(F)cc(C(=O)NC2CC2)cc1-c1c(F)cn2c(C(C)(C)C)nnc2c1F [AL-8697]	> 10	> 10	> 10	> 10	> 10	0	1.4	0	0	0	95.4	93.5	97.7	93.4	95.3	95.8	100	93.9	86.3	87	95.7	99.2	97	88.4	102	98.9	95.9	94.1	93.1	93.7	96.5	105	90.9	105	94.7
CSCC[C@H](NC(=O)[C@H](Cc1ccccc1)NC(=O)CNC(=O)CNC(=O)[C@@H](N)Cc1ccc(O)cc1)C(=O)O [metenkephalin]	> 10	> 10	> 10	> 10	> 10	0	0	0	0	0	94.7	94.9	100	96.4	97.2	93.8	96.5	96.7	98.4	108	102	99.7	105	94.3	101	103	97.1	102	102	102	96.6	99	91	115	107
CCC(CC)Nc1cc(C)nc(Oc2c(C)cc(C)cc2C)c1C	> 10	> 10	> 10	> 10	> 10	0	0	0	0	0	90.2	96.6	101	99.9	100	96.8	96.1	90.1	94.3	109	94.3	94.5	98.6	96.5	100	104	95.7	102	98.5	97	94.9	104	93.1	108	103
C[C@H](N)Cn1ccc2cc(F)c(Cl)cc21 [Ro-60-0175]	> 10	> 10	> 10	> 10	> 10	0.6	0	0	0	0	94.9	90.9	101	95.8	85.2	104	98.4	100	95.3	96	93.7	92.3	87.4	95.6	87.2	96.5	106	96.9	104	93.3	99.5	101	106	99.8	103
CN1CCN(C(=O)CN[C@@H]2C[C@H]2c2ccc(OCc3ccccc3)cc2)CC1 [RN-1]	> 10	> 10	> 10	> 10	> 10	1.5	0.1	0	0	0.7	109	95.2	90.2	89.2	83.3	99.5	102	105	92.2	89.1	89.9	82.5	96.1	94.5	108	103	98.3	102	96.7	96	87.4	103	99.9	94.2	84.9
CC1(COc2ccc(CC3SC(=O)NC3=O)cc2)CCCCC1 (stereo not given) [ciglitazone]	> 10	> 10	> 10	> 10	> 10	0	0	0	0	0	98.7	99.2	99.1	92.9	95.2	94.6	97	92.7	94.1	96.5	104	98.4	92.9	98	102	95.3	99.8	102	100	100	101	99.8	98.2	108	105
CN1CCN2c3c(cccc31)[C@@H]1CN(CCCC(=O)c3ccc(F)cc3)CC[C@@H]12 [lumateperone]	> 10	> 10	> 10	> 10	> 10	1	0	0	0	0.5	96.5	100	97.1	97.6	78.8	98.4	92.7	101	99.6	97.3	101	112	98.3	110	92.3	96.6	102	94.1	99.6	89.1	100	91.6	103	101	80.7
CCC[C@H](NC(=O)/C(C#N)=C/c1cccc(Br)n1)c1ccccc1 [WP1130]	2.43	2.98	3.94	2.74	3.18	5.5	5.7	4	6.3	5.5	106	103	93.2	93	21.3	101	100	100	97.6	3.5	100	97.1	90.7	118	10.8	95.7	108	97.5	94.6	0.9	99.8	105	101	100	0.8
CNC(=O)c1ccc2cc([C@@]3(O)CCn4cncc43)ccc2c1 [orteronel]	> 10	> 10	> 10	> 10	> 10	0	0	0	0	0	88.1	91.3	94.2	99.8	96.6	99.7	104	99.8	100	94.6	102	108	99.4	105	108	99.8	99	101	99	98.9	103	104	90.1	104	90
CCCNC(=O)Nc1ccc(Oc2ncnc3cc(OC)c(OC)cc23)cc1Cl [KRN-633]	> 10	> 10	> 10	> 10	> 10	0	0	0	0	0	92.8	98.5	86.6	93	90.8	101	103	104	105	99.2	100	101	95.4	101	97.4	96.8	97.7	96	97	93.4	103	90.5	100	92.1	94.5
N[C@@H](CSCCCO)C(=O)O [fudosteine]	> 10	> 10	> 10	> 10	> 10	0	0	0	0	0	96.1	93.9	97.3	97.2	106	97.7	92.7	99.6	94.1	100	102	111	107	96.8	115	96.4	101	97.2	102	108	93.1	83.3	96.1	88.8	105
CC(C)C1=C2[C@H]3CC[C@@H]4[C@@]5(C)CC[C@H](OC(=O)CC(C)(C)C(=O)O)C(C)(C)[C@@H]5CC[C@@]4(C)[C@]3(C)CC[C@@]2([C@@H](O)CN(CCN(C)C)Cc2ccc(Cl)cc2)CC1=O	> 10	> 10	> 10	> 10	> 10	0	0	0	0	0	96.3	98.7	97.7	100	97.2	102	106	106	99.5	105	95.7	91.8	106	104	105	95.3	97.8	94.3	94.9	94.2	96.7	105	100	99.6	95.4
Cn1ccc2cc(NC(=O)Nc3cccnc3)ccc21	> 10	> 10	> 10	> 10	> 10	0.2	0	0	0	0	100	97.9	88.7	84.5	95.8	105	102	103	97.7	103	108	97.6	98.1	94.9	98	105	98.8	101	97.1	100	91.5	102	92.3	95.8	97.2
